# Measurements from US9446039B2, “Aminoheteroaryl compounds as MTH1 inhibitors” (CEMM—FORSCHUNGSZENTRUM FÜR MOLEKULARE MEDIZIN GMBH, priority 2012, dated 2016).
# Experiments:
# Format in all cases: binding
# [1] = biological target: T1, SW480 colon carcinoma cells lysate proteins (Homo sapiens, UniProt P00558); details: PreyGene PGK1
# T1 sequence (P00558 1-417): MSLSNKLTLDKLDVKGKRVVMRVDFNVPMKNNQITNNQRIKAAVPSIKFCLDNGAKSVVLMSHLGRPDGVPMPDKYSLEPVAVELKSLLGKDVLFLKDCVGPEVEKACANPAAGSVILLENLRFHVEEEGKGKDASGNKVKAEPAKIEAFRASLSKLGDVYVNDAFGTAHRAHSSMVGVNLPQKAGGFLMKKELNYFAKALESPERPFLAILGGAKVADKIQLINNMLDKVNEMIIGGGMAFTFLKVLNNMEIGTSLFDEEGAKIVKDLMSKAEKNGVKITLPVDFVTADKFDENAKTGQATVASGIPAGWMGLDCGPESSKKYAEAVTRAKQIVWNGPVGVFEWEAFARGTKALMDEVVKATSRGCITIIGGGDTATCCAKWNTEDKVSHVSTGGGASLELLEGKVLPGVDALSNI
# [2] = biological target: SW480 colon carcinoma cells lysate proteins (Homo sapiens, UniProt P12814); details: PreyGene ACTN1
# SW480 colon carcinoma cells lysate proteins (Homo sapiens, UniProt P12814), sequence (P12814 whole entry): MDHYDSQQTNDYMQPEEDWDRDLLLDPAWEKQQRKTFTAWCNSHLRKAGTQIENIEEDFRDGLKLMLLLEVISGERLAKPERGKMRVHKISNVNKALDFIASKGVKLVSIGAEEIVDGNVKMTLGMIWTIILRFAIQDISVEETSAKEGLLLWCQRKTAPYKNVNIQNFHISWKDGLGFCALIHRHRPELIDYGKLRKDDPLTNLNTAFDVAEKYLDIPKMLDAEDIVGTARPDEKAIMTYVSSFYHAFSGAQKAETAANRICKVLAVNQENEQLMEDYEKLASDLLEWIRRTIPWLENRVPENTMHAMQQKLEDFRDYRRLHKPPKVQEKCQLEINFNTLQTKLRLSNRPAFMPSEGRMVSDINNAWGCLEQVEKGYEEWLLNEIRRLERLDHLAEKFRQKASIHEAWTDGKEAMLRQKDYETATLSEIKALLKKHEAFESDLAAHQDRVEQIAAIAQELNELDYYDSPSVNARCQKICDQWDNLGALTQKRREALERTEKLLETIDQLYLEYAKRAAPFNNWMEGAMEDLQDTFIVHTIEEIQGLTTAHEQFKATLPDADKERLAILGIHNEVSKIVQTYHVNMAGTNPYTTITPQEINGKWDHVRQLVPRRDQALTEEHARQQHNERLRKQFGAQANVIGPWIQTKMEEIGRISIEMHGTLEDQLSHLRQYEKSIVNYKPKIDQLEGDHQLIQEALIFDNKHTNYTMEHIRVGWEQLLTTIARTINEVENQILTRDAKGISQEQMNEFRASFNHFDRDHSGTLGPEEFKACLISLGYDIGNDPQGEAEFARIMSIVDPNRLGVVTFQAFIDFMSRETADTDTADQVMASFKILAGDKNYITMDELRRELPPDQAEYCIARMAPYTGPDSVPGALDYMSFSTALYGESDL
# [3] = biological target: SW480 colon carcinoma cells lysate proteins (Homo sapiens, UniProt P28070); details: PreyGene PSMB4
# SW480 colon carcinoma cells lysate proteins (Homo sapiens, UniProt P28070), sequence (P28070 46-264): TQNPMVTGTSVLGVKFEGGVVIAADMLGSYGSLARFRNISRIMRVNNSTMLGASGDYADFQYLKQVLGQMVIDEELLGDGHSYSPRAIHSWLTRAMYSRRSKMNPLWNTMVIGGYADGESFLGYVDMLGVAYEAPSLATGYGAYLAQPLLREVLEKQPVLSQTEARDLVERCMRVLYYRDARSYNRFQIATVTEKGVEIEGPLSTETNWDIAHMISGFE
# [4] = biological target: SW480 colon carcinoma cells lysate proteins (Homo sapiens, UniProt P49591); details: PreyGene SARS
# SW480 colon carcinoma cells lysate proteins (Homo sapiens, UniProt P49591), sequence (P49591 whole entry, looked up): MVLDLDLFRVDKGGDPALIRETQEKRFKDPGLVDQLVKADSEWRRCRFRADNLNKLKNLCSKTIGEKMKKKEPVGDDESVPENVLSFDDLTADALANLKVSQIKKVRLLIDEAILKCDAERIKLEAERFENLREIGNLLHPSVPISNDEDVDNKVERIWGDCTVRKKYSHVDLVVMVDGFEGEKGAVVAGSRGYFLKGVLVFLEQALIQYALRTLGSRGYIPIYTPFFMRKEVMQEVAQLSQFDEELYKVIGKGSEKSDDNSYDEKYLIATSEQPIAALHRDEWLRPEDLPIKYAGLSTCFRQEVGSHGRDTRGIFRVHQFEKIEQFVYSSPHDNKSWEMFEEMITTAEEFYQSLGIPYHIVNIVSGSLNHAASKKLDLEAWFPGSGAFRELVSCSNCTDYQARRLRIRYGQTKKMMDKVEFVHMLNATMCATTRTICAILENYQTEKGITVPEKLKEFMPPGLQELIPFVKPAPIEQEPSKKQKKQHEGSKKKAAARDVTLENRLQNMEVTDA
# [5] = biological target: T2, SW480 colon carcinoma cells lysate proteins (Homo sapiens, UniProt P55145); details: PreyGene MANF
# T2 sequence (P55145 25-182): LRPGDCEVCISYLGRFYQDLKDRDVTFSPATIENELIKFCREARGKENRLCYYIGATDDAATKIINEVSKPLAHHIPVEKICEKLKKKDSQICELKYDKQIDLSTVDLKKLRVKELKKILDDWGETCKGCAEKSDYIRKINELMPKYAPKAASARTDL
# [6] = biological target: SW480 colon carcinoma cells lysate proteins (Homo sapiens, UniProt Q01518); details: PreyGene CAP1
# SW480 colon carcinoma cells lysate proteins (Homo sapiens, UniProt Q01518), sequence (Q01518 whole entry): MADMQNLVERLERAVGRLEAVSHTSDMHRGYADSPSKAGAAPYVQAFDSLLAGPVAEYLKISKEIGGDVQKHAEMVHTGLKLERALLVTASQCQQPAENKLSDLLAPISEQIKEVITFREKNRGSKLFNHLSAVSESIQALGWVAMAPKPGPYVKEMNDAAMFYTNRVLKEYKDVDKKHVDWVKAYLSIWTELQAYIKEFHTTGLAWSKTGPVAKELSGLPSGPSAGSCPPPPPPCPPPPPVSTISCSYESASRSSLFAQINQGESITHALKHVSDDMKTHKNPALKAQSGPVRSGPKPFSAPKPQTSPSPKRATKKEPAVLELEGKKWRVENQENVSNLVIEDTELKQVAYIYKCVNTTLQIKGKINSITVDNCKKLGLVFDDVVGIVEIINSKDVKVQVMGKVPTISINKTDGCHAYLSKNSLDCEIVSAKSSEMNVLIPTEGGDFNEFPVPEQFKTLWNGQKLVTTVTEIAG
# [7] = biological target: T3, SW480 colon carcinoma cells lysate proteins (Homo sapiens, UniProt Q14498); details: PreyGene RBM39
# T3 sequence (Q14498 1-530): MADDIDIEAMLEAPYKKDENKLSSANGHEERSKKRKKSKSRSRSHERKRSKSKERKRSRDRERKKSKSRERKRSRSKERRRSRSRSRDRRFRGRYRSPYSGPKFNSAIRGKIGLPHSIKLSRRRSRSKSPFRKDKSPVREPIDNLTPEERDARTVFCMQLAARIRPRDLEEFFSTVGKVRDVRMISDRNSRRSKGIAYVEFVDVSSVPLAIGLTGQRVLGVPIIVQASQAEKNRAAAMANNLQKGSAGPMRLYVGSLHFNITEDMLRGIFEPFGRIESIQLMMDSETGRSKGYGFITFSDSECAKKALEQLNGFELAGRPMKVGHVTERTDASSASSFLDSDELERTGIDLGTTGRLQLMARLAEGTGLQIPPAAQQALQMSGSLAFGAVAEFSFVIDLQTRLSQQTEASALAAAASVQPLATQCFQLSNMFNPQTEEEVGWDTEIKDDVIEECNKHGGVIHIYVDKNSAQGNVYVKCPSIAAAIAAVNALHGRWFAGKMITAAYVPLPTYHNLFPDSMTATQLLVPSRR
# [8] = biological target: T4, SW480 colon carcinoma cells lysate proteins (Homo sapiens, UniProt Q8NC51); details: PreyGene SERBP1; SW480 cells
# T4 sequence (Q8NC51 1-408): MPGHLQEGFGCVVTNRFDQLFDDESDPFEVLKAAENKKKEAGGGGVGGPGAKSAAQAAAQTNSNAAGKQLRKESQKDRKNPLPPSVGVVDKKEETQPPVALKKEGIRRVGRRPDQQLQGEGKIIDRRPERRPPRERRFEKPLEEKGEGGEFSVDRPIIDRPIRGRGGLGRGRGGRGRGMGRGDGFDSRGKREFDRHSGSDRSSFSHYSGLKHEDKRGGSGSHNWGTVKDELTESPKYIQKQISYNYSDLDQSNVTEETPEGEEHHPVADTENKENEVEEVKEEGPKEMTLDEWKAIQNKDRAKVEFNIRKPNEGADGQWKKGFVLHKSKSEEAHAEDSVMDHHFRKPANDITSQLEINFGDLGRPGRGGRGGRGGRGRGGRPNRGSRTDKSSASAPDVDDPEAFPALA
# [9] = biological target: T5, SW480 colon carcinoma cells lysate proteins (Homo sapiens, UniProt Q9H910); details: PreyGene HN1L
# T5 sequence (Q9H910 1-190): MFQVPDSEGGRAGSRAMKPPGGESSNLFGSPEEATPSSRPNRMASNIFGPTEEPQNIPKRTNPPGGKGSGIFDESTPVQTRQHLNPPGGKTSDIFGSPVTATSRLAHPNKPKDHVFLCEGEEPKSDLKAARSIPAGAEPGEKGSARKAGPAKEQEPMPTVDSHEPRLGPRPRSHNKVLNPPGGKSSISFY
smiles,measurement,setting,value
C[C@H](Oc1cc(-c2cnn(C3CCNCC3)c2)cnc1N)c1c(Cl)ccc(F)c1Cl [(5)-crizotinib],AvgP,[1],0.2466
same,SC.Exp. 1-1,[1],14
same,SC.Exp. 1-2,[1],12
same,SC.Exp. 2-1,[1],0
same,SC.Exp. 2-2,[1],0
same,Sum (SC.Exp.),[1],26
same,AvgP,[2],0.2142
same,SC.Exp. 1-1,[2],3
same,SC.Exp. 1-2,[2],1
same,SC.Exp. 2-1,[2],0
same,SC.Exp. 2-2,[2],0
same,Sum (SC.Exp.),[2],4
same,AvgP,[3],0.1875
same,SC.Exp. 1-1,[3],2
same,SC.Exp. 1-2,[3],0
same,SC.Exp. 2-1,[3],0
same,SC.Exp. 2-2,[3],0
same,Sum (SC.Exp.),[3],2
same,AvgP,[4],0.4649
same,SC.Exp. 1-1,[4],4
same,SC.Exp. 1-2,[4],4
same,SC.Exp. 2-1,[4],0
same,SC.Exp. 2-2,[4],0
same,Sum (SC.Exp.),[4],8
same,AvgP,[5],0.3221
same,SC.Exp. 1-1,[5],2
same,SC.Exp. 1-2,[5],1
same,SC.Exp. 2-1,[5],0
same,SC.Exp. 2-2,[5],0
same,Sum (SC.Exp.),[5],3
same,AvgP,[6],0.3081
same,SC.Exp. 1-1,[6],3
same,SC.Exp. 1-2,[6],2
same,SC.Exp. 2-1,[6],0
same,SC.Exp. 2-2,[6],0
same,Sum (SC.Exp.),[6],5
same,AvgP,[7],0.4214
same,SC.Exp. 1-1,[7],4
same,SC.Exp. 1-2,[7],3
same,SC.Exp. 2-1,[7],0
same,SC.Exp. 2-2,[7],0
same,Sum (SC.Exp.),[7],7
same,AvgP,[8],0
same,SC.Exp. 1-1,[8],8
same,SC.Exp. 1-2,[8],10
same,SC.Exp. 2-1,[8],5
same,SC.Exp. 2-2,[8],6
same,SC.Exp. Sum,[8],29
same,AvgP,[9],0.1898
same,SC.Exp. 1-1,[9],0
same,SC.Exp. 1-2,[9],2
same,SC.Exp. 2-1,[9],0
same,SC.Exp. 2-2,[9],0
same,Sum (SC.Exp.),[9],2
